Test results taken from patent publication US20230271949A1, “GLP-1R MODULATING COMPOUNDS” (ASCLETIS BIOSCIENCE CO., LTD., priority 2022, published 2023).

What follows are molecules tested against GLP-1R (Homo sapiens, UniProt P43220) (assay: GLP-1R agonist cAMP stimulation assay (HTRF cAMP)). Settings: HEK293 cell line expressing GLP-1 target; HTRF cAMP agonist mode, 30 min at RT.
GLP-1R, sequence (P43220 24-463): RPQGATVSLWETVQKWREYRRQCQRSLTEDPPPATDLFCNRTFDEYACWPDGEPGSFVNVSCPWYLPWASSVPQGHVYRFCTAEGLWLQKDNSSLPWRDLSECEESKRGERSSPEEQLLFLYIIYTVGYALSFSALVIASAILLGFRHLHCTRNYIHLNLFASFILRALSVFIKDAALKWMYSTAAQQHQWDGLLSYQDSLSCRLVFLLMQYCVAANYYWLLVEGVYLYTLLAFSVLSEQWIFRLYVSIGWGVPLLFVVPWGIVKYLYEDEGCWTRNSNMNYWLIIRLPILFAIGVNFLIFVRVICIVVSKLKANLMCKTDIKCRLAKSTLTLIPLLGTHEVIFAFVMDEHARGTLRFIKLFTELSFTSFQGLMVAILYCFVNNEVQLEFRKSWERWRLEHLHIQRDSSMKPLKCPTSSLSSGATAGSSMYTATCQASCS
Assay type: cell-based
Method: cAMP Detection Kit, Cisbio (Cat #62AM4PEJ)
The cell line was constructed by WuXi.
2. Methods • a) The compound source plate preparation: • The reference 7-37 was diluted from 500 nM, 4-fold, 10 points in DMSO using Bravo. The compounds were diluted from […], 3-fold, 10 points in DMSO using Bravo. • b) Transfer of compounds: • 1) Use Echo transfer 100 nL cpd to the OptiPlate-384 plate. • 2) Spin the plates at 1000 rpm for 5 sec. • c) Cell suspension preparation: • 1) Thaw 1 vial of GLP-1 cells rapidly in 37° C. water bath. • 2) Transfer cell suspension into 10 ml of HBSS in a 15 ml conical tube. • 3) Centrifuge cells at 1000 rpm for 5 min at room temperature to pellet cells • 4) Gently aspirate supernatant being careful not to aspirate cells. • 5) Flick pellet to loose cells and re-suspend the cell pellet in 10 ml HBSS. Use a sterile pipette to pipette up and down to dislodge clumps. • 6) Count cells for concentration and to determine cell viability on Vi-cell. • 7) Re-suspend the GLP-1 cells in assay buffer at a concentration of 1.0×E5/mL cells. • 8) Transfer 10 μL GLP-1 cells to OptiPlate-384 plate. • d) HTRF cAMP Assay for agonist: • 1) Incubate the plate at RT for 30 min before adding the detection reagent. • 2) Add 10 μL each of detection reagent using Electric Multiple Channel Pipette. • 3) Cover the 384 plate with TopSeal-A film and incubate for 60 minutes at room temperature. • Remove the TopSeal-A, read on EnVision.
Create a new log (Inhibitor) vs response—Variable slope mode in Prism5.0 software, substitute the standard curve concentration (x) and its corresponding 665/615 data (y) into the model, convert the standard curve concentration (abscissa) by x=log(x), and make the standard curve through the converted xy.
Transform the data of 665/615 in the whole plate into a column of data, substitute it into y in the table of standard curve concentration (x) and 665/615 data (y), copy the x (interpolatedx) corresponding to automatic conversion by the software into a table, convert it into cAMP level by the formula x=10^(x), and reset the data into 384 distribution.
% Activity=(cAMP level−LC)/(HC−LC)*100% • Z factor: 1-3*(STD_HC+[…])/(HC-LC) • Assay Window: HC/LC • LC: The average cAMP level of adding DMSO wells • HC: The average cAMP level of adding the top concentration of reference compounds wells.
Create a new […] in Prism5.0 software, substitute the sample concentration (x) and its corresponding % Activity data (y) into the model, convert the standard curve concentration (abscissa) to x=log(x), and make the sample curve through the converted xy.
`Cc1nn(C)c2ccc(NC(=O)c3ccc4c(c3)nc(CN3CC=C(c5cccc(OCc6ccc(Cl)cc6F)n5)CC3)n4C[C@@H]3CCO3)cc12` [Compound 159] was tested, and the EC50 was 9.74 nM.
`O=C(Nc1ccc2[nH]nc(C(F)F)c2c1)c1ccc2c(c1)nc(CN1CCC(c3cccc(OCc4ccc(Cl)cc4F)n3)CC1)n2C[C@@H]1CCO1` [Compound 115] was tested, and the EC50 was 0.87 nM.
For `Cc1n[nH]c2c(C(F)(F)F)cc(NC(=O)c3ccc4c(c3)nc(CN3CCC(c5cccc(OCc6ccc(Cl)cc6F)n5)CC3)n4C[C@@H]3CCO3)cc12` [Compound 106], the EC50 was 2.31 nM.
In the case of `Cc1cc(NC(=O)c2ccc3c(c2)nc(CN2CC=C(c4cccc(OCc5ccc(Cl)cc5F)n4)CC2)n3C[C@@H]2CCO2)cc2c1NC(=O)C21CC1` [Compound 155], the EC50 is reported as 0.55 nM.
For `Cc1n[nH]c2c(Cl)cc(NC(=O)c3ccc4c(c3)nc(CN3CC=C(c5cccc(OCc6ccc(Cl)cc6F)n5)CC3)n4C[C@@H]3CCO3)cc12` [Compound 160], the EC50 was 0.98 nM.
`O=C(NCC(=O)N1CC[C@H]1C(=O)O)c1ccc2c(c1)nc(CN1CCC(c3cccc(OCc4ccc(Cl)cc4F)n3)CC1)n2C[C@@H]1CCO1` [Compound 61] gave an EC50 of 6.75 nM.
In the case of `COCCn1c(CN2CCC(c3cccc(OCc4ccc(Cl)cc4F)n3)CC2)nc2cc(C(=O)NCCCc3ccc(OC)cc3)ccc21` [Compound 20], the EC50 is reported as 3240 nM.
For `COCCn1c(CN2CCC(c3cccc(OCc4ccc(Cl)cc4F)n3)CC2)nc2cc(C(=O)NCCc3cccc(O)c3)ccc21` [Compound 19], the EC50 was 176 nM.
In the case of `COc1n[nH]c2ccc(NC(=O)c3ccc4c(c3)nc(CN3CC=C(c5cccc(OCc6ccc(Cl)cc6F)n5)CC3)n4C[C@@H]3CCO3)cc12` [Compound 138], the EC50 is reported as 8.92 nM.
`O=C(NCCc1ccc(O)cc1)c1ccc2c(c1)nc(CN1CCC(c3cccc(OCc4ccc(Cl)cc4F)n3)CC1)n2C[C@@H]1CCO1` [Compound 15] gave an EC50 of 25.6 nM.
`COCCn1c(Cc2ccc(-c3cccc(OCc4ccc(C#N)cc4F)n3)cc2)nc2cc(C(=O)NCC(O)c3ccc(O)cc3)ccc21` (centres unmarked) [Compound 11] was tested, and the EC50 was 567 nM.
`Cc1cc2c(Cl)ccc(COc3cccc(C4=CCN(Cc5nc6cc(C(=O)Nc7cc(C)c8[nH]nc(C(F)F)c8c7)ccc6n5C[C@@H]5CCO5)CC4)n3)c2o1` [Compound 349] gave an EC50 of 1.61 nM.
Work on `Cc1n[nH]c2c(C)cc(C(=O)Nc3ccc4c(c3)nc(CN3CC=C(c5cccc(OCc6ccc(C#N)c7cc(Cl)oc67)n5)CC3)n4C[C@@H]3CCO3)cc12` [Compound 357] yielded an EC50 of 0.41 nM.
In the case of `Cc1cc(C(=O)Nc2ccc3c(c2)nc(CN2CCC(c4cccc5c4OC(C)(c4ccc(Cl)cc4F)O5)CC2)n3C[C@@H]2CCO2)cc2c1NC(=O)C21CC1` (some centres unmarked) [Compound 343], the EC50 is reported as 0.54 nM.
Molecule `Cc1cc(NC(=O)c2ccc3c(c2)nc(CN2CCC(c4cccc5c4OC(C)(c4ccc(Cl)cc4F)O5)CC2)n3C[C@@H]2CCO2)cc2[nH]c(=O)[nH]c12` (some centres unmarked) [Compound 339] has an EC50 of 0.39 nM.
`COCCn1c(CN2CCC(c3cccc(OCc4ccc(Cl)cc4F)n3)CC2)nc2cc(C(=O)NCc3cccc(O)c3)ccc21` [Compound 32] showed an EC50 of 112 nM.
Molecule `Cc1cc(C(=O)Nc2ccc3c(c2)nc(CN2CC=C(c4cccc(OCc5ccc(Cl)cc5F)n4)CC2)n3C[C@@H]2CCO2)cc2nn[nH]c12` [Compound 242] has an EC50 of 0.17 nM.
For `COCCn1c(Cc2ccc(-c3cccc(OCc4ccc(C#N)cc4F)n3)cc2-c2nccn2C)nc2cc(C(=O)NCCc3ccc(S(N)(=O)=O)cc3)ccc21` [Compound 29], the EC50 was over 10000 nM.
`Cc1n[nH]c2c(C)cc(NC(=O)c3ccc4c(c3)nc(CN3CC=C(c5cccc(OCc6cc(F)c(C#N)s6)n5)CC3)n4C[C@@H]3CCO3)cc12` [Compound 364] gave an EC50 of 0.38 nM.
`CCc1cc(NC(=O)c2ccc3c(c2)nc(CN2CC=C(c4cccc(OCc5ccc(Cl)cc5F)n4)CC2)n3C[C@@H]2CCO2)cc2c(C)n[nH]c12` [Compound 170] gave an EC50 of 3.55 nM.
`O=C(Nc1ccc2[nH]nc(C(F)(F)F)c2c1)c1ccc2c(c1)nc(CN1CC=C(c3cccc(OCc4ccc(Cl)cc4F)n3)CC1)n2C[C@@H]1CCO1` [Compound 161] gave an EC50 of 0.87 nM.
For `Cc1n[nH]c2ccc(NC(=O)c3ccc4c(c3)nc(CN3CCC(c5cccc(OCc6ccc(Cl)cc6F)n5)CC3)n4C[C@@H]3CCO3)c(F)c12` [Compound 122], the EC50 was 3.21 nM.
With `COC(=O)[C@@H]1C[C@H](O)CN1C(=O)CNC(=O)c1ccc2c(c1)nc(CN1CCC(c3cccc(OCc4ccc(C#N)cc4F)n3)CC1)n2C[C@@H]1CCO1` [Compound 47] the EC50 was 9.6 nM.
`COc1n[nH]c2ccc(C(=O)Nc3ccc4c(c3)nc(CN3CC=C(c5cccc(OCc6ccc(Cl)cc6F)n5)CC3)n4C[C@@H]3CCO3)cc12` [Compound 201] showed an EC50 of 1.99 nM.
`O=C(Nc1ccc2c(c1)nc(CN1CC=C(c3cccc(OCc4ccc(Cl)cc4F)n3)CC1)n2C[C@@H]1CCO1)c1ccc2[nH]nc(C3CC3)c2c1` [Compound 216] showed an EC50 of 0.82 nM.
In the case of `O=C(N[C@@H](Cc1ccc(O)cc1)C(=O)O)c1ccc2c(c1)nc(CN1CCC(c3cccc(OCc4ccc(Cl)cc4F)n3)CC1)n2C[C@@H]1CCO1` [Compound 51], the EC50 is reported as 134 nM.
`Cc1n[nH]c2c(Cl)cc(NC(=O)c3ccc4c(c3)nc(CN3CC=C(c5cccc6c5OC(C)(c5ccc(Cl)cc5F)O6)CC3)n4CC3CCO3)cc12` (centres unmarked) [Compound 293] gave an EC50 of 0.99 nM.
`N#Cc1ccc(COc2cccc(C3=CCN(Cc4nc5cc(C(=O)Nc6ccc7c(c6)C6(CC6)C(=O)N7)ccc5n4C[C@@H]4CCO4)CC3)n2)c(F)c1` [Compound 182] gave an EC50 of 0.32 nM.
Molecule `C[C@@H](NC(=O)c1ccc2c(c1)nc(CN1CCC(c3cccc(OCc4ccc(Cl)cc4F)n3)CC1)n2C[C@@H]1CCO1)C(=O)N1C[C@@H](O)C[C@@H]1C(=O)O` [Compound 65] has an EC50 of 1.75 nM.
In the case of `O=C(Nc1ccc2nc(CN3CC=C(c4cccc(OCc5ccc(Cl)cc5F)n4)CC3)n(C[C@@H]3CCO3)c2c1)c1cc(F)c2[nH]ncc2c1` [Compound 283], the EC50 is reported as 10.2 nM.
In the case of `Cc1n[nH]c2ccc(NC(=O)c3ccc4c(c3)nc(CN3CC=C(c5cccc6c5O[C@](C)(c5ccc(Cl)cc5F)O6)CC3)n4C[C@@H]3CCO3)cc12` [Compound 6], the EC50 is reported as 1.21 nM.
`Cc1n[nH]c2c(F)cc(NC(=O)c3ccc4c(c3)nc(CN3CCC(c5cccc(OCc6ccc(C#N)c7c6ncn7C)n5)CC3)n4C[C@@H]3CCO3)cc12` [Compound 379] was tested, and the EC50 was 3.12 nM.
Work on `Cc1n[nH]c2c(C(F)(F)F)cc(C(=O)Nc3ccc4nc(CN5CC=C(c6cccc(OCc7ccc(Cl)cc7F)n6)CC5)n(CC5CCO5)c4c3)cc12` (centres unmarked) [Compound 287] yielded an EC50 of 2.98 nM.
With `Cc1n[nH]c2c(F)cc(C(=O)Nc3ccc4c(c3)nc(CN3CC=C(c5cccc6c5OC(C)(c5ccc(Cl)cc5F)O6)CC3)n4CC3CCO3)cc12` (centres unmarked) [Compound 304] the EC50 was 0.18 nM.
In the case of `CC1(c2ccc(Cl)cc2F)Oc2cccc(C3=CCN(Cc4nc5cc(C(=O)Nc6ccc7[nH]nc(F)c7c6)ccc5n4CC4CCO4)CC3)c2O1` (centres unmarked) [Compound 328], the EC50 is reported as 12.7 nM.
With `O=C(Nc1cc(C(F)(F)F)c2[nH]ncc2c1)c1ccc2c(c1)nc(CN1CC=C(c3cccc(OCc4ccc(Cl)cc4F)n3)CC1)n2C[C@@H]1CCO1` [Compound 158] the EC50 was 1.03 nM.
Molecule `CC1(c2ccc(C#N)cc2F)Oc2cccc(C3CCN(Cc4nc5cc(NC(=O)c6ccc7[nH]nc(C8CC8)c7c6)ccc5n4CC4CCO4)CC3)c2O1` (centres unmarked) [Compound 348] has an EC50 of 0.91 nM.
`O=C(Nc1ccc2[nH]nc(C3CC3)c2c1)c1ccc2c(c1)nc(CN1CC=C(c3cccc(OCc4ccc(Cl)cc4F)n3)CC1)n2C[C@@H]1CCO1` [Compound 162] gave an EC50 of 1.23 nM.
`Cc1n[nH]c2cnc(NC(=O)c3ccc4c(c3)nc(CN3CCC(c5cccc(OCc6ccc(Cl)cc6F)n5)CC3)n4C[C@@H]3CCO3)nc12` [Compound 195] was tested, and the EC50 was 2.31 nM.
With `N#Cc1ccc(COc2cccc(C3=CCN(Cc4nc5cc(NC(=O)c6cc(F)c7c(c6)C6(CC6)C(=O)N7)ccc5n4C[C@@H]4CCO4)CC3)n2)c(F)c1` [Compound 226] the EC50 was 0.12 nM.
For `Cc1n[nH]c2c(F)cc(NC(=O)c3ccc4c(c3)nc(CN3CC=C(c5cccc(OCc6ccc(C#N)c7c6ncn7C)n5)CC3)n4C[C@@H]3CCO3)cc12` [Compound 367], the EC50 was 3.92 nM.
In the case of `O=C(Nc1cc(C(F)(F)F)c2[nH]ncc2c1)c1ccc2c(c1)nc(CN1CCC(c3cccc(OCc4ccc(Cl)cc4F)n3)CC1)n2C[C@@H]1CCO1` [Compound 108], the EC50 is reported as 2.39 nM.
`CC(C)c1n[nH]c2ccc(C(=O)Nc3ccc4c(c3)nc(CN3CC=C(c5cccc(OCc6ccc(Cl)cc6F)n5)CC3)n4C[C@@H]3CCO3)cc12` [Compound 223] was tested, and the EC50 was 0.95 nM.
Molecule `CCc1cc(NC(=O)c2ccc3c(c2)nc(CN2CCC(c4cccc(OCc5ccc(Cl)cc5F)n4)CC2)n3C[C@@H]2CCO2)cc2c(C)n[nH]c12` [Compound 117] has an EC50 of 10.2 nM.
